Laboratory results reported in paper PMC5137160, “Optical imaging of MMP-12 active form in inflammation and aneurysm” (Scientific Reports, 2016).

How the values were obtained:
[1] = Blood levels in apoE-/- mice; type: in vivo; settings: mouse, whole blood, intravenous, 1 nmol, read-out: Blood level
Protocol: Fluorescent probes (one nmol in 100 μL saline) were administered through a jugular vein catheter under inhaled isoflurane anesthesia. Blood samples were collected at various time points after probe administration to monitor blood clearance. Animals were sacrificed at the indicated time points and various organs were harvested. Near-infrared fluorescence reflectance imaging was conducted using an IVIS Spectrum system (Caliper Life Science, Hopkinton, MA) with appropriate excitation (Ex) and emission (Em) filter sets (Ex/Em = 675/720 nm for probe 1 and Ex/Em = 745/800 nm for probes 3 and 4). Fluorescence from 10 μL of blood was converted to % injected dose per gram (% ID/g) using a standard curve derived from serial dilutions of each probe in 10 μL of mouse blood. Tissue fluorescence was quantified as mean efficiency per pixel and was presented as an arbitrary unit (AU) relative to the signal from each probe in 10 μL of mouse blood.

[2] = biological target: T1, hMMP-10 (Homo sapiens, UniProt P09238); experiment: MMP inhibition assay (Ki); type: biochemical
T1 construct: purchased R&D Systems (Minneapolis, MN)
Protocol: (§1) Human MMP-8, -9, -12 and -13 were produced in the laboratory. Other MMPs were purchased from R&D Systems (Minneapolis, MN). MMP inhibition assays were carried out as previously described. Pro-MMPs were pre-activated by p-aminophenylmercuric acetate following the method described by R&D Systems. Titration experiments were carried out to determine active enzyme concentration for each MMP prior to the assay. For each probe, the percentage of inhibition was determined from five different concentrations in triplicates, chosen to reach a range of 20–80% inhibition. Ki values were determined using the method proposed by Horovitz and Leviski[45].

[3] = biological target: T2, hMMP-13 (Homo sapiens, UniProt P45452); experiment: MMP inhibition assay (Ki); type: biochemical
T2 construct: made in house
Protocol: as §1

[4] = biological target: T3, hMMP-14 (Homo sapiens, UniProt P50281); experiment: MMP inhibition assay (Ki); type: biochemical
T3 construct: purchased R&D Systems (Minneapolis, MN)
Protocol: as §1

[5] = biological target: T4, hMMP-8 (Homo sapiens, UniProt P22894); experiment: MMP inhibition assay (Ki); type: biochemical
T4 construct: made in house
Protocol: as §1

[6] = biological target: T5, hMMP-1 (Homo sapiens, UniProt P03956); experiment: MMP inhibition assay (Ki); type: biochemical
T5 construct: purchased R&D Systems (Minneapolis, MN)
T5 sequence (P03956 100-469): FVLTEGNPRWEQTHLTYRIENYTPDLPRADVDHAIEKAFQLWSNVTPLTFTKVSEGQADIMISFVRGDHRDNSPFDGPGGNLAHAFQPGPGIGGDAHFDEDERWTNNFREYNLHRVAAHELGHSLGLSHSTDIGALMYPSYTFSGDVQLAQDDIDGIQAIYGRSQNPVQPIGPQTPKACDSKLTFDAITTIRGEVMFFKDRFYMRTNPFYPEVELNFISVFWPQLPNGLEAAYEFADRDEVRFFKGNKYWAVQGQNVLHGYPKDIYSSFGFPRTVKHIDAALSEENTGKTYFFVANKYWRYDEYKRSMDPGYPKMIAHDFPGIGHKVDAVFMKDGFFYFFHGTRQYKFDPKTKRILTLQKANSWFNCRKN
Protocol: as §1

[7] = biological target: T6, hMMP-2 (Homo sapiens, UniProt P08253); experiment: MMP inhibition assay (Ki); type: biochemical
T6 construct: purchased R&D Systems (Minneapolis, MN)
T6 sequence (P08253 110-660): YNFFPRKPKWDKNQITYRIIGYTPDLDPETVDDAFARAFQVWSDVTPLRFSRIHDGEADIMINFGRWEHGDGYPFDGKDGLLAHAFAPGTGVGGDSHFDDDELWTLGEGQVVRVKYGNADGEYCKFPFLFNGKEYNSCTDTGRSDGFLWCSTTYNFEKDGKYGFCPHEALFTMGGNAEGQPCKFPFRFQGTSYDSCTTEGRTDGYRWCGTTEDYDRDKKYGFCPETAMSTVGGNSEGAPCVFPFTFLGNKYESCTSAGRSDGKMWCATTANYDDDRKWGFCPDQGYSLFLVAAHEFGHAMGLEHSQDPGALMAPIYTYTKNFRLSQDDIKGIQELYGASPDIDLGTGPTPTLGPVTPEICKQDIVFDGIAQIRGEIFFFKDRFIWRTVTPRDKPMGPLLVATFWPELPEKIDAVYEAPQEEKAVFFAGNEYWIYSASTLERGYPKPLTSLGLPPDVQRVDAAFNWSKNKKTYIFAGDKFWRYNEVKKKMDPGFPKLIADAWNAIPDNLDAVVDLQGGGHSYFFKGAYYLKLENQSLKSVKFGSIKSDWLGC
Protocol: as §1

[8] = biological target: T7, hMMP-9 (Homo sapiens, UniProt P14780); experiment: MMP inhibition assay (Ki); type: biochemical
T7 construct: made in house
Protocol: as §1

[9] = biological target: T8, hMMP-7 (Homo sapiens, UniProt P09237); experiment: MMP inhibition assay (Ki); type: biochemical
T8 construct: purchased R&D Systems (Minneapolis, MN)
T8 sequence (P09237 95-267): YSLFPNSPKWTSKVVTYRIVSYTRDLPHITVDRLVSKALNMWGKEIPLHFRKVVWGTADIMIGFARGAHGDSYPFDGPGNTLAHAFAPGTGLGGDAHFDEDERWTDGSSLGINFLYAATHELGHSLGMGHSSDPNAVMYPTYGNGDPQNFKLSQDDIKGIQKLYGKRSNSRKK
Protocol: as §1

[10] = biological target: T9, hMMP-3 (Homo sapiens, UniProt P08254); experiment: MMP inhibition assay (Ki); type: biochemical
T9 construct: purchased R&D Systems (Minneapolis, MN)
Protocol: as §1

[11] = Stability in mouse blood by HPLC; type: in vitro ADME; settings: 4 hours at 37 °C
Protocol: Probes 1, 2, 3 and control probe 4 were synthesized from phosphinic building blocks whose synthesis was previously reported. Briefly, the elongation of the peptide’s sequence as well as the incorporation of the phosphinic building blocks were performed on solid support using a standard Fmoc strategy. After cleavage from the support, pseudo peptide intermediates were purified and subsequently engaged in a coupling reaction with the appropriate dye-NHS ester. The identity and purity of each optical probe were confirmed by analytical HPLC, mass spectrometry analysis and NMR (for detailed protocols and analytical data see supplemental information). The stability of each probe was confirmed in phosphate buffered saline (PBS). Moreover, the stability of probe 3 and its control, probe 4 were evaluated by HPLC in mouse blood over a period of 4 hours at 37 °C.

T1 sequence (P09238 99-476): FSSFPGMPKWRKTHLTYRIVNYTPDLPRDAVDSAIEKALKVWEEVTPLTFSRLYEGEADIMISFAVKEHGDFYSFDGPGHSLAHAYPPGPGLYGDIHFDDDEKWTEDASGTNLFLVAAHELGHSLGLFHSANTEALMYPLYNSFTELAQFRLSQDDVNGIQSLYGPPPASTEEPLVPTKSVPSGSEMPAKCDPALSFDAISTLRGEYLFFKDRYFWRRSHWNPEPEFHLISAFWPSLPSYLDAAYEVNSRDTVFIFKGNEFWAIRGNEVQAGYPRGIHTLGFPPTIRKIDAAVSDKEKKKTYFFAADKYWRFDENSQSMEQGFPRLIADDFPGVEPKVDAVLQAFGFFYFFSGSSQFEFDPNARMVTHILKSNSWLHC
T4 sequence (P22894 101-467): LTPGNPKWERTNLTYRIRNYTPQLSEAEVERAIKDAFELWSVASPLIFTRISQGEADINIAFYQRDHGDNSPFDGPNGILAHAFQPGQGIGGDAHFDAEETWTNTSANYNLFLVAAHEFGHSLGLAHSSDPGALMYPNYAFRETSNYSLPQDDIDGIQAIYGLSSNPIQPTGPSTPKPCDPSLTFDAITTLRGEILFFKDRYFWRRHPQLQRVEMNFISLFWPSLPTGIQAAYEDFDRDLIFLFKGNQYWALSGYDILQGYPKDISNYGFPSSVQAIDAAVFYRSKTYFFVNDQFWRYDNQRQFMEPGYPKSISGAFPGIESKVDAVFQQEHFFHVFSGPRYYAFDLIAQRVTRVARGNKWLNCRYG
T7 sequence (P14780 94-707): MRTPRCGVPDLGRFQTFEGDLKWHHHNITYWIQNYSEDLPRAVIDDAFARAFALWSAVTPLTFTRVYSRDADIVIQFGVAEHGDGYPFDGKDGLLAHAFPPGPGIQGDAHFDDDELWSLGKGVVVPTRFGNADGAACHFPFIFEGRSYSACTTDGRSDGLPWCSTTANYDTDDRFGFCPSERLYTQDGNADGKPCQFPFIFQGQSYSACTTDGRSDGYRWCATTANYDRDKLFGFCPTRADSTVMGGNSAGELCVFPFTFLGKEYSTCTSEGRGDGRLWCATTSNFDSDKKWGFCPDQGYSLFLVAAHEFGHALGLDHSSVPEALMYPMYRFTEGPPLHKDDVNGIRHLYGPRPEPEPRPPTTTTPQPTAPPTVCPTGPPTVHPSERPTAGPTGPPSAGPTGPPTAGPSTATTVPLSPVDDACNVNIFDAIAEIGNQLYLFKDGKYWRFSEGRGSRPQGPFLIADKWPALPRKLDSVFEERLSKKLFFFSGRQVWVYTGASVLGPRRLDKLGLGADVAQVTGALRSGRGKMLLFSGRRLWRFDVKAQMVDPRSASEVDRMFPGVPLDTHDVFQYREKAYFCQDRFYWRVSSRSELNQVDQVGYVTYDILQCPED
T9 sequence (P08254 100-477): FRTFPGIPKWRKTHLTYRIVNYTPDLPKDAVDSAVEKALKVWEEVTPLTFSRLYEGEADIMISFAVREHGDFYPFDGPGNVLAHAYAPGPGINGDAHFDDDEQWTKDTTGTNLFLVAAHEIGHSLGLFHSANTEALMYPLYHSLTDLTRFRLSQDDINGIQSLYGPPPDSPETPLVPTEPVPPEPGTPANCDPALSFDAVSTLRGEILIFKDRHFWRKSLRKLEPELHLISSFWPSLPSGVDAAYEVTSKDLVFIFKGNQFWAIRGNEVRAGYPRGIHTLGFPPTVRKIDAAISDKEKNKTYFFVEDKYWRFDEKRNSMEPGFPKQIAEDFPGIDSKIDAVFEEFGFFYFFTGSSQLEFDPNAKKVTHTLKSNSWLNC

| Structure (SMILES) | tissue uptake at 30 min [1] [%ID/g] | tissue uptake at 60 min [1] [%ID/g] | Ki [2] [µM] | Ki [3] [µM] | Ki [4] [µM] | Ki [5] [µM] | Ki [6] [µM] | Ki [7] [µM] | Ki [8] [µM] | Ki [9] [µM] | Ki [10] [µM] | stability in mouse blood [11] |
| --- | --- | --- | --- | --- | --- | --- | --- | --- | --- | --- | --- | --- |
| CC1(C)C(/C=C/C2=C(Oc3ccc(CCC(=O)NCCCOCCOCCOCCCNC(=O)[C@H](CCC(=O)[O-])NC(=O)[C@H](CCC(=O)O)NC(=O)[C@H](Cc4cc(-c5ccc(-c6cccc(Cl)c6)cc5)no4)CP(=O)(O)c4ccc(Br)cc4)cc3)C(=C/C=C3/N(CCC[N+](C)(C)C)c4ccc(S(=O)(=O)[O-])cc4C3(C)C)/CCC2)=[N+](CCC[N+](C)(C)C)c2ccc(S(=O)(=O)[O-])cc21 [probe 3] | 2.7 ± 0.1 | 2.3 ± 0.3 | 0.136 ± 0.022 | 0.124 ± 0.007 | 1.02 ± 0.069 | 3.31 ± 0.348 | > 10 | 2.13 ± 0.172 | 4.79 ± 0.535 | 4.99 ± 0.151 | 0.367 ± 0.061 | fully stable |
| CC1(C)C(=CC=C2CCCC(C=CC3=[N+](CCC[N+](C)(C)C)c4ccc(S(=O)(=O)[O-])cc4C3(C)C)=C2Oc2ccc(CCC(=O)NCCCOCCOCCOCCCNC(=O)C(CCC(=O)[O-])NC(=O)C(CCC(=O)O)NC(=O)C(Cc3cc(-c4cccc(Oc5ccccc5)c4)no3)CP(=O)(O)c3ccc(Br)cc3)cc2)N(CCC[N+](C)(C)C)c2ccc(S(=O)(=O)[O-])cc21 (stereo not drawn) [probe 4] | 2.4 ± 0.3 | 2 ± 0.2 | 6.43 ± 1.67 | 7.73 ± 1.53 | 7.86 ± 1.53 | 7.5 ± 0.73 | > 10 | > 12 | 4.9 ± 1.3 | 9.8 ± 0.32 | > 12 | stable |
